Laboratory results from patent publication US20230257372A1 (CHONG KUN DANG PHARMACEUTICAL CORP., priority 2020, published 2023).
Where two headings read alike, the source gives them in different places.

How the values were obtained:
human recombinant HDAC6 = biological target: T1, human recombinant HDAC6 (Homo sapiens, UniProt Q9UBN7); assay: HDAC6 enzyme activity inhibition (HDAC Fluorimetric Drug Discovery Kit); type: biochemical
T1 construct: purchased Calbiochem Inc. 382180
T1 sequence (Q9UBN7 1-1215): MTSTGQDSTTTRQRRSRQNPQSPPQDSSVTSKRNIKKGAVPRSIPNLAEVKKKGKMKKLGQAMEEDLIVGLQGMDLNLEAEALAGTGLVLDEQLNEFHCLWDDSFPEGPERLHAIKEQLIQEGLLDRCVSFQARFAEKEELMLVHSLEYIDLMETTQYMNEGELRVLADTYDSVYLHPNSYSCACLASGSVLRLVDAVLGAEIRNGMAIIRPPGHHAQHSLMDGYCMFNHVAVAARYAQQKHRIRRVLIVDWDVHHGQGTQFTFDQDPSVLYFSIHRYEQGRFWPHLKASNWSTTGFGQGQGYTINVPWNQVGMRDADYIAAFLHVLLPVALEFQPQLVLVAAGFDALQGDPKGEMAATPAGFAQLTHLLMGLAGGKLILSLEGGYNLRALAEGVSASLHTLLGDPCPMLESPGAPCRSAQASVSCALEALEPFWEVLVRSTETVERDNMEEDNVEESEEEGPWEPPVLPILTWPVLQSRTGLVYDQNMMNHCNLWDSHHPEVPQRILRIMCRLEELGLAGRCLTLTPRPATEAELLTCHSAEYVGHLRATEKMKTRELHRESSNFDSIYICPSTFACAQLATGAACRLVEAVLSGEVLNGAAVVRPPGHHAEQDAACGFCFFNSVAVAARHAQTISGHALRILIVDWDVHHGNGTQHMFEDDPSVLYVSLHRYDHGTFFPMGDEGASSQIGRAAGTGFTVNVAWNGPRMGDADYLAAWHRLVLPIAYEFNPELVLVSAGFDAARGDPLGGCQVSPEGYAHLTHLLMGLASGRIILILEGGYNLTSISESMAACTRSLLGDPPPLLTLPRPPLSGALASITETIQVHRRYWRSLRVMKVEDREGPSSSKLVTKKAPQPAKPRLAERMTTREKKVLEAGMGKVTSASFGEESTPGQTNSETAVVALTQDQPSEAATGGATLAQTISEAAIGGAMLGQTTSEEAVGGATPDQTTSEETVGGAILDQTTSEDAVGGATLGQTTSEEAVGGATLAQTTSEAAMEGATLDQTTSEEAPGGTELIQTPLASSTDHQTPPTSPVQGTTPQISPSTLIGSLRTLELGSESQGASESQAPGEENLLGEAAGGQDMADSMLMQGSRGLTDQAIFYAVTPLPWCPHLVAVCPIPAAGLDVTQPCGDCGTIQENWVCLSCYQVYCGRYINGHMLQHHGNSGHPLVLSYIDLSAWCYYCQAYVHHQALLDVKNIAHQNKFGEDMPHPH
Summary of the method: (§1)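 Fluorimetric deacetylase read-out. 5-fold compound dilutions; […] enzyme, 10 μM substrate; 30° C, 60 min; developer 30 min.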

human recombinant HDAC1 = biological target: T2, human recombinant HDAC1 (Homo sapiens, UniProt Q13547); assay: HDAC1 enzyme activity inhibition (HDAC Fluorimetric Drug Discovery Kit); type: biochemical; settings: read-out: HDAC1
T2 construct: purchased Enzo Life Science, Inc. BML-SE456
Summary of the method: as §1

[1] = human recombinant HDAC6, IC50 calculated with GraphPad Prism
[2] = human recombinant HDAC1, IC50 calculated with GraphPad Prism
[3] = human recombinant HDAC6, same protocol as HDAC1
[4] = human recombinant HDAC1, Fluor de Lys substrate, 30° C. 60 minutes

T2 sequence (Q13547 whole entry): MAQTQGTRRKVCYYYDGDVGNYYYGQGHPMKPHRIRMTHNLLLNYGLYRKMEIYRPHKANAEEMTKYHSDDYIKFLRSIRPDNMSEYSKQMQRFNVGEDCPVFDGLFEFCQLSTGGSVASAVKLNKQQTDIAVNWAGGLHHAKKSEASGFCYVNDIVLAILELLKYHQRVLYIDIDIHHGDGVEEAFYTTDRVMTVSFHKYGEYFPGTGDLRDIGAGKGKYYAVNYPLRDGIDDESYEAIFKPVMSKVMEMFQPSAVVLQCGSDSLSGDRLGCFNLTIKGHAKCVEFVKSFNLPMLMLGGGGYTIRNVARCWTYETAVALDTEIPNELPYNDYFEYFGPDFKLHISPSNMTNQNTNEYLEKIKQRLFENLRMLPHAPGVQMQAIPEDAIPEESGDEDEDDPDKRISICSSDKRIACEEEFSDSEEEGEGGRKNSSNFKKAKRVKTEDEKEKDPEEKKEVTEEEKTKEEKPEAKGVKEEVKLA

Row | HDAC6 selectivity (fold) (human recombinant HDAC6; HDAC1 IC50 / HDAC6 IC50) | IC50 (human recombinant HDAC6; [1]) [nM] | IC50 (human recombinant HDAC1; [2]) [µM] | HDAC6 selectivity (fold) (human recombinant HDAC6; HDAC6 over HDAC1) | IC50 (human recombinant HDAC6; [3]) [nM] | IC50 (human recombinant HDAC1; [4]) [µM] | SMILES
1 | 2873 | 17.4 | > 50 | – | – | – | CC(C)N1CCC(F)(c2cn(Cc3ccc(-c4nnc(C(F)F)o4)cn3)nn2)CC1 [Compound 4007, 2-(difluoromethyl)-5-(6-((4-(4-fluoro-1-isopropylpiperidin-4-yl)-1H-1,2,3-triazol-1-yl)methyl)pyridin-3-yl)-1,3,4-oxadiazole]
2 | 3105 | 16.1 | > 50 | – | – | – | O=c1ccc(-c2cn(Cc3ccc(-c4nnc(C(F)F)o4)cn3)nn2)c[nH]1 [Compound 3845, 5-(1-((5-(5-(difluoromethyl)-1,3,4-oxadiazol-2-yl)pyridin-2-yl)methyl)-1H-1,2,3-triazol-4-yl)pyridin-2(1H)-one]
3 | – | – | – | 1184 | 42.2 | > 50 | CN1CCN(Cc2ccc(-c3cn(Cc4ccc(-c5nnc(C(F)F)o5)cc4)nn3)cc2)CC1 [Compound 4552, 2-(difluoromethyl)-5-(4-((4-(4-((4-methylpiperazin-1-yl)methyl)phenyl)-1H-1,2,3-triazol-1-yl)methyl)phenyl)-1,3,4-oxadiazole]
4 | 627 | 79.7 | > 50 | – | – | – | CN1CCN(Cc2cccc(-c3cn(Cc4ccc(-c5nnc(C(F)F)o5)cc4)nn3)c2)CC1 [Compound 4414]
5 | – | – | – | 529 | 94.4 | > 50 | Fc1cc(-c2nnc(C(F)F)o2)cnc1Cn1cc(-c2ccc(CN3CCCC3)c(Cl)c2)nn1 [Compound 19096]
6 | 988 | 50.6 | > 50 | – | – | – | Fc1ccc(-c2cn(Cc3ccc(-c4nnc(C(F)F)o4)cc3)nn2)cc1N1C[C@@H]2C[C@H]1CN2 [Compound 4398, 2-(4-((4-(3-((1S,4S)-2,5-diazabicyclo[2.2.1]heptan-2-yl)-4-fluorophenyl)-1H-1,2,3-triazol-1-yl)methyl)phenyl)-5-(difluoromethyl)-1,3,4-oxadiazole]
7 | 76 | 653 | > 50 | – | – | – | CC(C)N1CC(c2cn(Cc3ccc(-c4nnc(C(F)F)o4)cn3)nn2)C1 [Compound 3952, 2-(difluoromethyl)-5-(6-((4-(1-isopropylazetidin-3-yl)-1H-1,2,3-triazol-1-yl)methyl)pyridin-3-yl)-1,3,4-oxadiazole]
8 | 437 | 114 | > 50 | – | – | – | OCc1c(-c2ccccc2)nnn1Cc1ccc(-c2nnc(C(F)F)o2)cn1 [Compound 4478, (1-((5-(5-(difluoromethyl)-1,3,4-oxadiazol-2-yl)pyridin-2-yl)methyl)-4-phenyl-1H-1,2,3-triazol-5-yl)methanol]
9 | 1201 | 41.6 | > 50 | – | – | – | CN(C)C(C)(C)C(=O)Nc1cccc(-c2cn(Cc3ccc(-c4nnc(C(F)F)o4)cc3F)nn2)c1 [Compound 4353]
10 | 2463 | 20.3 | > 50 | – | – | – | CCN1CCN(c2ccc(F)c(-c3cn(Cc4ccc(-c5nnc(C(F)F)o5)cc4)nn3)c2)CC1 [Compound 4452, 2-(difluoromethyl)-5-(4-((4-(5-(4-ethylpiperazin-1-yl)-2-fluorophenyl)-1H-1,2,3-triazol-1-yl)methyl)phenyl)-1,3,4-oxadiazole]
11 | 1291 | 38.7 | > 50 | – | – | – | Fc1cnccc1-c1cn(Cc2ccc(-c3nnc(C(F)F)o3)cn2)nn1 [Compound 4184, 2-(difluoromethyl)-5-(6-((4-(3-fluoropyridin-4-yl)-1H-1,2,3-triazol-1-yl)methyl)pyridin-3-yl)-1,3,4-oxadiazole]
12 | – | – | – | 2525 | 19.8 | > 50 | CC(C)N1CCN(c2cc(-c3cn(Cc4ccc(-c5nnc(C(F)F)o5)cc4F)nn3)ccn2)CC1 [Compound 4635]
13 | 847 | 59 | > 50 | – | – | – | Fc1cc(-c2nnc(C(F)F)o2)ccc1Cn1cc(-c2ccc(CNC3COC3)cc2)nn1 [Compound 4469, N-(4-(1-(4-(5-(difluoromethyl)-1,3,4-oxadiazol-2-yl)-2-fluorobenzyl)-1H-1,2,3-triazol-4-yl)benzyl)oxetan-3-amine]
14 | – | – | – | 1237 | 40.4 | > 50 | Fc1cc(-c2nnc(C(F)F)o2)ccc1Cn1cc(-c2ccc(CN3CCC3)s2)nn1 [Compound 17912, 2-(4-((4-(5-(azetidin-1-ylmethyl)thiophen-2-yl)-1H-1,2,3-triazol-1-yl)methyl)-3-fluorophenyl)-5-(difluoromethyl)-1,3,4-oxadiazole]
15 | – | – | – | 541 | 92.4 | > 50 | Fc1cc(-c2nnc(C(F)F)o2)cnc1Cn1cc(-c2cc(Cl)cc(CN3CCCC3)c2)nn1 [Compound 19092, 2-(6-((4-(3-chloro-5-(pyrrolidin-1-ylmethyl)phenyl)-1H-1,2,3-triazol-1-yl)methyl)-5-fluoropyridin-3-yl)-5-(difluoromethyl)-1,3,4-oxadiazole]
16 | 1381 | 36.2 | > 50 | – | – | – | CC(C)N1CC(N2CCc3cc(-c4cn(Cc5ccc(-c6nnc(C(F)F)o6)cc5F)nn4)ccc3C2)C1 [Compound 4393, 2-(difluoromethyl)-5-(3-fluoro-4-((4-(2-(1-isopropylazetidin-3-yl)-1,2,3,4-tetrahydroisoquinolin-6-yl)-1H-1,2,3-triazol-1-yl)methyl)phenyl)-1,3,4-oxadiazole]
17 | – | – | – | 1075 | 46.5 | > 50 | CN1CCC(c2cccc(-c3cn(Cc4ncc(-c5nnc(C(F)F)o5)cc4F)nn3)c2)CC1 [Compound 18869, 2-(difluoromethyl)-5-(5-fluoro-6-((4-(3-(1-methylpiperidin-4-yl)phenyl)-1H-1,2,3-triazol-1-yl)methyl)pyridin-3-yl)-1,3,4-oxadiazole]
18 | 407 | 123 | > 50 | – | – | – | Fc1cc(-c2nnc(C(F)F)o2)ccc1Cn1cc(-c2ccc(CN3CCC(F)(F)CC3)cc2)nn1 [Compound 4472, 2-(difluoromethyl)-5-(4-((4-(4-((4,4-difluoropiperidin-1-yl)methyl)phenyl)-1H-1,2,3-triazol-1-yl)methyl)-3-fluorophenyl)-1,3,4-oxadiazole]
19 | 837 | 59.7 | > 50 | – | – | – | Fc1cc(-c2nnc(C(F)F)o2)ccc1Cn1cc(-c2cccc(CN3CCOCC3)c2)nn1 [Compound 4404, 4-(3-(1-(4-(5-(difluoromethyl)-1,3,4-oxadiazol-2-yl)-2-fluorobenzyl)-1H-1,2,3-triazol-4-yl)benzyl)morpholine]
20 | 187 | 267 | > 50 | – | – | – | CCC(F)(CC)CN1CCC(c2cn(Cc3ccc(-c4nnc(C(F)F)o4)cn3)nn2)CC1 [Compound 3896, 2-(difluoromethyl)-5-(6-((4-(1-(2-ethyl-2-fluorobutyl)piperidin-4-yl)-1H-1,2,3-triazol-1-yl)methyl)pyridin-3-yl)-1,3,4-oxadiazole]
21 | 148 | 337 | > 50 | – | – | – | CN1CC(c2cccc(-c3cn(Cc4ccc(-c5nnc(C(F)F)o5)cc4F)nn3)c2)C1 [Compound 4460, 2-(difluoromethyl)-5-(3-fluoro-4-((4-(3-(1-methylazetidin-3-yl)phenyl)-1H-1,2,3-triazol-1-yl)methyl)phenyl)-1,3,4-oxadiazole]

Row | SMILES | HDAC6 selectivity (fold) (human recombinant HDAC6; HDAC1 IC50 / HDAC6 IC50) | IC50 (human recombinant HDAC6; [1]) [nM] | IC50 (human recombinant HDAC1; [2]) [µM] | HDAC6 selectivity (fold) (human recombinant HDAC6; HDAC6 over HDAC1) | IC50 (human recombinant HDAC6; [3]) [nM] | IC50 (human recombinant HDAC1; [4]) [µM]
22 | FC(F)c1nnc(-c2ccc(Cn3cc(-c4cccnc4)nn3)nc2)o1 [Compound 3835, 2-(difluoromethyl)-5-(6-((4-(pyridin-3-yl)-1H-1,2,3-triazol-1-yl)methyl)pyridin-3-yl)-1,3,4-oxadiazole] | 1170 | 42.7 | > 50 | – | – | –
